Assay results as given in patent US20040110769A1, “Farnesyl protein transferase inhibitor combinations with antiestrogen agents” (priority 2003, published 2004).
Values joined by “and” are separate entries in the source; they are usually repeats but may differ in a detail not shown here. Identical values can stand only once.

Test system: MCF7 human breast carcinoma cells
Test: Anti-tumor activity in established MCF-7 human breast tumor xenografts in nude mice
Type: in vivo
Details: MCF-7 xenograft in female nude mice, individual animals showing regression
Procedure: A combination of a farnesyl transferase inhibitor, namely the compound identified as Compound 75 above (R115777), and an anti-estrogen agent, namely tamoxifen (TMX), was tested for anti-tumor activity in comparison with the activity of the individual components of the combination, as described below.
Female Nude-Homo NCRNU non-ovarectimized mice 8 weeks of age were fed ad libitum water and an irradiated standard rodent diet. Mice were housed in stable microisolators on a 12 hour light cycle at 21-22° C. and 40-60% humidity.
Mice were inoculated subcutaneously with 1×10^7 MCF7 human breast carcinoma cells in the flank. Tumors were monitored initially twice a week and then daily as neoplasms reached the desired size, approximately 100 mg. When the carcinomas reached a size between 62-144 mg in calculated tumor weight, the animals were pair matched into the various treatment groups (group mean tumor weights ranged from 83-85 mg).
Estimated tumor weight was calculated using the formula: [formula] […]
The tumor growth inhibition (TGI) endpoint was used in this study to assess the efficacy of the various treatments. The tumor burden endpoint was set at 1.0 g as measured by calliper. TGI values were determined on the last day of the study (Day 5), when all mice were under test, except those that had expired from treatment-related or procedural causes. […]

Compound | Regression in Individual Animals (magnitude of tumor regression expressed as % reduction from pretreatment tumor size) (R115777 100 mg/kg, orally qd to end) | Regression in Individual Animals (magnitude of tumor regression expressed as % reduction from pretreatment tumor size) (TMX 1 mg/kg, s.c.)
Cn1cncc1C(N)(c1ccc(Cl)cc1)c1ccc2c(c1)c(-c1cccc(Cl)c1)cc(=O)n2C (single isomer, unassigned; (+)) [Compound R115777, (+)-6-[amino(4-chlorophenyl)(1-methyl-1H-imidazol-5-yl)methyl]-4-(3-chlorophenyl)-1-methyl-2(1H)-quinolinone] | 93% and 100% | 
CC/C(=C(\c1ccccc1)c1ccc(OCCN(C)C)cc1)c1ccccc1 [TMX, tamoxifen] |  | 10% and 78% and 94% and 44% and 59% and 31%
